Earlier results in patent US20100197666A1, “(THIO) -CARBAMOYL-CYCLOHEXANE DERIVATIVES AND METHOD FOR TREATING SCHIZOPHRENIA” (priority 2007, published 2010).

How the values were obtained:
Conditions in all cases: background statement; cited from earlier work
5-HT2C = 5-HT2C (Homo sapiens, UniProt P28335)
[1] = tested on: adrenergic receptor sites
histamine H1 = histamine H1 (Homo sapiens, UniProt P35367)
histamine H1, sequence (P35367 whole entry): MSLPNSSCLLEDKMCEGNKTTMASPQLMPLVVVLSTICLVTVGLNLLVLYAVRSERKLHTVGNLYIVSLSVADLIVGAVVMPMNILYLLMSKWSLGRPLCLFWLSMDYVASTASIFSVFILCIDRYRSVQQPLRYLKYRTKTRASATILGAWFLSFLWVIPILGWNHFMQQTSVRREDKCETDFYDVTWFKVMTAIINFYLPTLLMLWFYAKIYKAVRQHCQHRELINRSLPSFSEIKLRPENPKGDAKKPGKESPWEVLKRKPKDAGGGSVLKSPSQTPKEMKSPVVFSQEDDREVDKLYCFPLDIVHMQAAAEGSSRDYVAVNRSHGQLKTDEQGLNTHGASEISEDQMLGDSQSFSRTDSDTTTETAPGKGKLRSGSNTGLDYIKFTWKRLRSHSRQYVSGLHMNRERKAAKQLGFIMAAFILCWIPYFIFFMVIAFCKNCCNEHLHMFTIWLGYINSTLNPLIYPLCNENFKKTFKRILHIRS

5-HT2C, sequence (P28335 33-458, species assumed): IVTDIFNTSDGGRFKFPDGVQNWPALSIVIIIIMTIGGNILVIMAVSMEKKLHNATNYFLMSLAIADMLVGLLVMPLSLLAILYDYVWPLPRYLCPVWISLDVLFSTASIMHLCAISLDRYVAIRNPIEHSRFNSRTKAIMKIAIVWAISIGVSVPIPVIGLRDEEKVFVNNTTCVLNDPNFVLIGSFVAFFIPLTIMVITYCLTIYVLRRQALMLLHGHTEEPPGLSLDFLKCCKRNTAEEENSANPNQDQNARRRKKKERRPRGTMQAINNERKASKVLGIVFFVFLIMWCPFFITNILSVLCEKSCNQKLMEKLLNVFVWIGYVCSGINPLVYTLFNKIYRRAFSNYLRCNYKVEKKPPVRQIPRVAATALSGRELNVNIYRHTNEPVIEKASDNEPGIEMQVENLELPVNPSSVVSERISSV

CN(C)C(=O)NC1CCC(CCN2CCN(c3cccc(Cl)c3Cl)CC2)CC1.Cl (stereo not drawn) [trans-4-{2-[4-(2,3-dichlorophenyl)-piperazin-1-yl]-ethyl}-N,N-dimethylcarbamoyl-cyclohexylamine hydrochloride]
low potency: potency at 5-HT2C receptor site (5-HT2C) | potency at adrenergic receptor sites [1] | potency at histamine H1 receptor site (histamine H1)
